Values joined by “and” are separate entries in the source; they are usually repeats but may differ in a detail not shown here. Equal entries are not always repeated. Where two headings read alike, the source gives them in different places.
B1: Wnt3a: secreted signaling protein of the WNT gene family (protein, UniProt P56704 19-352, looked up)
Protein Wnt-3a: SYPIWWSLAVGPQYSSLGSQPILCASIPGLVPKQLRFCRNYVEIMPSVAEGIKIGIQECQHQFRGRRWNCTTVHDSLAIFGPVLDKATRESAFVHAIASAGVAFAVTRSCAEGTAAICGCSSRHQGSPGKGWKWGGCSEDIEFGGMVSREFADARENRPDARSAMNRHNNEAGRQAIASHMHLKCKCHGLSGSCEVKTCWWSQPDFRAIGDFLKDKYDSASEMVVEKHRESRGWVETLRPRYTYFKVPTERDLVYYEASPNFCEPNPETGSFGTRDRTCNVSSHGIDGCDLLCCGRGHNARAERRREKCRCVFHWCCYVSCQECTRVYDVHTCK
B2: Nodal: 13 kDa member of the TGF-B superfamily (protein, UniProt Q96S42 238-347, looked up)
Nodal homolog: HHLPDRSQLCRKVKFQVDFNLIGWGSWIIYPKQYNAYRCEGECPNPVGEEFHPTNHAYIQSLLKRYQPHRVPSTCCAPVKTKPLSMLYVDNGRVLLDHHKDMIVEECGCL
B3: Anti mullerian hormone: member of the TGF-B gene family which mediates male sexual differentiation (protein, UniProt P03971 452-560, looked up)
Muellerian-inhibiting factor: SAGATAADGPCALRELSVDLRAERSVLIPETYQANNCQGVCGWPQSDRNPRYGNHVVLLLKMQVRGAALARPPCCVPTAYAGKLLISLSEERISAHHVPNMVATECGCR

Experiments:
ARG1 = test: RNA-seq of compound-treated primary human hepatocytes, ARG1 expression; format: cell-based; conditions: primary human hepatocytes; for Relative ARGI level vs Untreated (±Standard Deviation): triplicate (Table 17, FIG. 9); for Fold change (Log 2) vs untreated, ARG1 expression: RNA-seq (Table 7)
ASS1 = test: RNA-seq of compound-treated primary human hepatocytes, ASS1 expression; format: cell-based
SLC25A15 = test: RNA-seq of compound-treated primary human hepatocytes, SLC25A15 expression; format: cell-based
CPS1 = test: RNA-seq of compound-treated primary human hepatocytes, CPS1 expression; format: cell-based; conditions: primary human hepatocytes; for Relative CPS1 level vs Untreated (±Standard Deviation): triplicate (Table 19, FIG. 11); for CPS1 expression, Fold change (Log 2) vs untreated: RNA-seq
NAGS = format: cell-based, human
SLC25A13 = test: RNA-seq of compound-treated primary human hepatocytes, SLC25A13 expression; format: cell-based; conditions: for Relative SLC25A13 level vs Untreated (±Standard Deviation): primary human hepatocytes, triplicate (Table 23, FIG. 15)
OTC = test: RNA-seq of compound-treated primary human hepatocytes, OTC expression; format: cell-based; conditions: primary human hepatocytes, RNA-seq
urea cycle genes = test: RNA-seq of primary human hepatocytes, compounds that modulate multiple urea cycle-related genes; format: cell-based; conditions: primary human hepatocytes, RNA-seq; for Up-regulated Genes: urea cycle-related genes significantly increased (Table 10)
[1] = 10 μM, primary human hepatocytes, triplicate (Table 15, FIG. 7)
[2] = 3 μM, primary human hepatocytes, triplicate (Table 24, FIG. 16A-B)
[3] = 10 μM, primary human hepatocytes, triplicate (Table 24, FIG. 16A-B)
[4] = 0.3 μM, primary human hepatocytes, triplicate (Table 21, FIG. 13)
[5] = 1 μM, primary human hepatocytes, triplicate (Table 21, FIG. 13)
[6] = 10 μM, primary human hepatocytes, triplicate (Table 21, FIG. 13)
[7] = Example 11, relative mRNA vs DMSO

Molecule | Relative ASS1 level vs Untreated (±Standard Deviation) (ASS1; [1]) | Relative SLC25A13 level vs Untreated (±Standard Deviation) (SLC25A13; 3 μM) | Relative SLC25A13 level vs Untreated (±Standard Deviation) (SLC25A13; 10 μM) | Fold change (Log 2) vs untreated, ARG1 expression (ARG1) [Log 2] | OTC expression, Fold change (Log 2) vs untreated (OTC) [Log 2] | number of urea cycle genes whose expression was significantly up-regulated (urea cycle genes) | Up-regulated Genes (urea cycle genes) | CPS1 expression, Fold change (Log 2) vs untreated (CPS1) [Log 2] | also measured
CCNC(=O)Nc1ccc(-c2nc(N3CCOC[C@@H]3C)c3c(n2)C(C)(C)S(=O)(=O)C3)cc1 [CZ415] | 1.65 ± 0.11 | 1.61 ± 0.19 | 1.52 ± 0.17 | – | – | – | – | – | Relative ARGI level vs Untreated (±Standard Deviation) (ARG1; 3 μM): 1.35 ± 0.12; Relative SLC25A15 level vs Untreated (±Standard Deviation) (SLC25A15): 1.61 ± 0.19 and 1.52 ± 0.17; Relative CPS1 level vs Untreated (±Standard Deviation) (CPS1; 1 μM): 1.32 ± 0.04; Relative NAGS level vs Untreated (±Standard Deviation) (NAGS): 2.00 ± 0.27; increase in NAGS gene expression (Tables 21, 22, FIG. 13, 14) (NAGS): greatest increase
COc1cccc2cc(-c3nc([C@H]4CC[C@H](C(=O)O)CC4)n4ncnc(N)c34)[nH]c12 [OSI-027] | 2.05 ± 0.00 | 1.87 ± 0.46 | 1.52 ± 0.04 | – | – | – | – | – | Relative ASS1 level vs Untreated (±Standard Deviation) (ASS1; 1 μM, primary human hepatocytes, triplicate (Table 15, FIG. 7)): 1.55 ± 0.16; Relative ASS1 level vs Untreated (±Standard Deviation) (ASS1; 3 μM, primary human hepatocytes, triplicate (Table 15, FIG. 7)): 1.45 ± 0.10; Relative SLC25A15 level vs Untreated (±Standard Deviation) (SLC25A15; 1 μM, primary human hepatocytes, triplicate (Table 24, FIG. 16A-B)): 1.53 ± 0.01; Relative SLC25A15 level vs Untreated (±Standard Deviation) (SLC25A15; [2]): 1.87 ± 0.46; Relative SLC25A15 level vs Untreated (±Standard Deviation) (SLC25A15; [3]): 1.52 ± 0.04; Relative NAGS level vs Untreated (±Standard Deviation) (NAGS; [4]): 1.46 ± 0.07; Relative NAGS level vs Untreated (±Standard Deviation) (NAGS; [5]): 1.37 ± 0.27; Relative NAGS level vs Untreated (±Standard Deviation) (NAGS; 3 μM, primary human hepatocytes, triplicate (Table 21, FIG. 13)): 2.51 ± 0.16; Relative NAGS level vs Untreated (±Standard Deviation) (NAGS; [6]): 2.14 ± 0.12; Relative SLC25A13 level vs Untreated (±Standard Deviation) (SLC25A13; 1 μM): 1.53 ± 0.01
PDGF | – | – | – | 1.85 | 0.77 | four | CPS1, OTC, ARG1, SLC25A15 | 2.12 | Fold change (Log 2) vs untreated, SLC25A15 expression (SLC25A15; primary human hepatocytes, RNA-seq (Table 8)): 0.71 Log 2
COc1ccc(-c2ccc3c(N4CCOC[C@@H]4C)nc(N4CCOC[C@@H]4C)nc3n2)cc1CO [AZD-8055] | 1.66 ± 0.11 | 1.35 ± 0.06 | 1.64 ± 0.09 | – | – | – | – | – | Relative ARGI level vs Untreated (±Standard Deviation) (ARG1; 0.3 μM): 1.44 ± 0.09; Relative ARGI level vs Untreated (±Standard Deviation) (ARG1; 1 μM): 1.43 ± 0.25; Relative ARGI level vs Untreated (±Standard Deviation) (ARG1; 3 μM): 1.36 ± 0.07; Relative SLC25A15 level vs Untreated (±Standard Deviation) (SLC25A15; [2]): 1.3 ± 0.06; Relative SLC25A15 level vs Untreated (±Standard Deviation) (SLC25A15; [3]): 1.64 ± 0.09; Relative CPS1 level vs Untreated (±Standard Deviation) (CPS1; 1 μM): 1.42 ± 0.24; Relative NAGS level vs Untreated (±Standard Deviation) (NAGS; [6]): 1.43 ± 0.01
HGF/SF: Hepatocyte Growth Factor, also known as scatter factor (SF) | – | – | – | 1.51 | 0.56 | four | NAGS, CPS1, OTC, ARG1 | 2.02 | Fold change (Log 2) vs untreated, NAGS expression (NAGS): 0.56 Log 2
TNF-α | – | – | – | – | 0.87 | four | CPS1, ASS1, OTC, ARG1 | 2.31 | Fold change (Log 2) vs untreated, ASS1 expression (ASS1; primary human hepatocytes, RNA-seq (Table 4)): 0.58 Log 2
O=C1CCc2c(Oc3ccc4c(c3)[C@@H]3[C@H](O4)[C@H]3c3nc4ccc(C(F)(F)F)cc4[nH]3)ccnc2N1 [Lifirafenib (BGB-283), Lifirafenib] | – | – | 1.92 ± 0.11 | – | – | – | – | – | Relative ASS1 level vs Untreated (±Standard Deviation) (ASS1): 1.55 ± 0.28; Relative SLC25A15 level vs Untreated (±Standard Deviation) (SLC25A15): 1.92 ± 0.11 and 2.00 ± 0.13; Relative NAGS level vs Untreated (±Standard Deviation) (NAGS): 1.35 ± 0.35 and 1.44 ± 0.15; increase in SLC25A13 gene expression (Table 23, FIG. 15) (SLC25A13; [7]): greatest increase
COc1ccc(-c2ccc3c(N4CCOC[C@@H]4C)nc(N4CCOC[C@@H]4C)nc3n2)cc1CO [AZD8055] | 1.44 ± 0.27 | 1.33 ± 0.06 | 1.54 ± 0.12 | – | – | – | – | – | Relative ARGI level vs Untreated (±Standard Deviation) (ARG1; 1 μM): 1.34 ± 0.24; Relative ARGI level vs Untreated (±Standard Deviation) (ARG1; 3 μM): 1.42 ± 0.03; Relative ARGI level vs Untreated (±Standard Deviation) (ARG1; 10 μM): 1.35 ± 0.08; Relative SLC25A15 level vs Untreated (±Standard Deviation) (SLC25A15; [2]): 1.33 ± 0.06 and 1.85 ± 0.26; Relative SLC25A15 level vs Untreated (±Standard Deviation) (SLC25A15; [3]): 1.54 ± 0.12 and 1.68 ± 0.26; Relative CPS1 level vs Untreated (±Standard Deviation) (CPS1; 0.3 μM): 1.38 ± 0.27; Relative CPS1 level vs Untreated (±Standard Deviation) (CPS1; 1 μM): 1.38 ± 0.67; Relative CPS1 level vs Untreated (±Standard Deviation) (CPS1; 3 μM): 1.60 ± 0.07; Relative NAGS level vs Untreated (±Standard Deviation) (NAGS; [4]): 1.31 ± 0.20; Relative NAGS level vs Untreated (±Standard Deviation) (NAGS; [5]): 1.41 ± 0.28; Relative NAGS level vs Untreated (±Standard Deviation) (NAGS; [6]): 1.93 ± 0.02; increase in NAGS gene expression (Tables 21, 22, FIG. 13, 14) (NAGS; [7]): greatest increase
Activin | – | – | – | 2.01 | 0.94 | four | NAGS, CPS1, OTC, ARG1 | 2.23 | Fold change (Log 2) vs untreated, NAGS expression (NAGS): 0.69 Log 2
B1 | – | – | – | 2.07 | 0.92 | four | CPS1, OTC, ARG1, SLC25A15 | 2.6 | –
B2 | – | – | – | 2.05 | 0.68 | three | CPS1, OTC, ARG1 | 2.44 | –
B3 | – | – | – | 2.06 | 0.81 | three | CPS1, OTC, ARG1 | 2.35 | –

Reference: US11266655B2, “Methods and compositions for treating urea cycle disorders” (Camp4 Therapeutics Corporation, priority 2019, dated 2022)
